Results as given in patent publication US5608095A, “Alkyl-4-silyl-phenols and esters thereof as antiatherosclerotic agents” (Hoechst Marion Roussel, Inc., priority 1996, dated 1997).
Where two headings read alike, the source gives them in different places.

Experiments:
[1] = Clinical chemistries in serum of rats; type: in vivo, male Sprague-Dawley rats; conditions: for response vs control in vivo at 0.3 % / response vs control in vivo at 0.1 %: po, 96 h
From the text: (§1) A typical experiment consisted of 4-6 groups of rats (N=5 per group) with 1 group being a control which received no MDL compound and the other groups being treated with 0.3% MDL compound. Some of the compounds were either repeated at 0.3% or evaluated again at the lower dose of 0.1%. Male Sprague-Dawley rats, 50-100 g, (Harlan Laboratories, Indianapolis, Ind.) were housed in groups of 5, fed ad libitum water and Purina Rodent chow (#5002) with or without MDL compound as a dietary admixture for 4 days. Dietary admixtures (0.3%) were made by mixing 1.2 grams of an MDL compound with 400 grams of Purina rodent chow (#5002). The MDL compound was mixed with approximately 50 grams of food using a mortar and pestle. This was added to the remainder of the food and mixed for 3 hours on a rotary mixer. In the morning of day 5, non-fasted rats were anesthetized with carbon dioxide, and blood was collected by cardiac puncture. Rats were sacrificed by cervical dislocation. Body weights and liver weights were recorded in grams. Food consumption was recorded as grams.cndot.day^-1.cndot.rat^-1. Deaths were recorded as mortality. Aliquots of fresh serum were used for clinical chemistries, thiobarbituric acid reactive substances (TBARS) and conjugated diene measurements. Aliquots of serum (~0.5mL) and whole livers were frozen at -20° C. for compound and metabolite concentration determination at a later time.
Blood was allowed to clot at room temperature for 30 minutes. Serum was obtained after centrifugation for 10 min at 4° C. at 3000 rpm in a Beckman J-6M/E centrifuge with a JS-4.2 rotor. Fresh serum was analyzed by a COBAS MIRA S autoanalyzer (Roche Diagnostics) using Roche diagnostic reagents for the following clinical chemistry measurements: alkaline phosphatase (ALP, kit #44553), alanine transaminase (ALT, kit #42375), aspartate aminotransferase (AST, kit #42381), total cholesterol (CHOL, kit #44334), triglyceride (TG, kit #44120), and glucose (GLU, kit #44558). ALP, ALT, and AST were calculated as units/L. Cholesterol, triglycerides, and glucose were calculated as mg/dL.

[2] = tested on: oxidation of serum lipids; test: TBARS assay, rat serum; type: in vivo, male Sprague-Dawley rats; conditions: po, 96 h, read-out: TBARS, percent of control
From the text: as §1
In this assay the oxidation of serum lipids is initiated with CuSO4, resulting in the formation of aldehydes, such as malondialdehyde (MDA). Upon incubation with thiobarbituric acid, the absorbance of the aldehydes can be detected at 530-540 nm. As stated in the previous example, TBARS values which are lower than control serum values indicate the relative ability of a test compound to inhibit the oxidation of lipids in a sample. TBARS were measured as follows: 100 μL of serum were mixed with 400 μL of a 5 mmol CuSO4 solution and incubated at 37° C. for 3 hr. The reactions were stopped by addition of 1.0 mL of 20% trichloroacetic acid. Then 1.0 mL of 0.67% thiobarbituric acid in 0.05N sodium hydroxide was added, mixed, and the samples incubated for 30 min at 90° C. Samples were centrifuged briefly to pellet undissolved material, and the supernatants were transferred to a 96-well microtiter plate. Absorbances were measured at 540 nm using a Biotek model EL311 microplate reader. The nmoles of MDA produced were calculated from a standard curve of 0 to 10 nmoles of MDA prepared from malonaldehyde bis(dimethylacetal). Serum samples from treated rats were compared to serum samples from control rats that received no MDL compound.

[3] = tested on: oxidation of serum lipids; test: TBARS assay, serum of cholesterol-fed rabbits; type: in vivo, female New Zealand White rabbits; conditions: Oryctolagus cuniculus, po, 168 h, read-out: TBARS, percent of control
Outline: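 Female NZW rabbits ate 0.2% cholesterol chow with 0.4% dietary compound (some 0.26% or 0.6%) for 7 days (14 days at 0.6%); fasted serum was collected. Serum was oxidised with 5 mM CuSO4 solution, 37 °C 5 h, then reacted with thiobarbituric acid at 90 °C for 30 min. MDA nmol came from an A540 standard curve, versus untreated-rabbit serum.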

[4] = rat serum, diet 0.3%, 4 days, read-out: CHOL (total cholesterol), percent of control
[5] = rat serum, diet 0.3%, 4 days, read-out: TRIG (triglycerides), percent of control
[6] = rabbit serum, diet 0.4%, 7 days
[7] = Rattus norvegicus, read-out: CHOL (total cholesterol), percent of control
[8] = Rattus norvegicus, read-out: TRIG (triglycerides), percent of control

Row | SMILES | response vs control in vivo at 0.3 % [1, 4] [%] | response vs control in vivo at 0.3 % [1, 5] [%] | ALP (alkaline phosphatase), percent of control ([1]; rat serum, diet 0.3%, 4 days) [%] | ALT (alanine aminotransferase), percent of control ([1]; rat serum, diet 0.3%, 4 days) [%] | AST (aspartate aminotransferase), percent of control ([1]; rat serum, diet 0.3%, 4 days) [%] | GLUC (glucose), percent of control ([1]; rat serum, diet 0.3%, 4 days) [%] | response vs control in vivo at 0.3 % ([2]; rat serum, diet 0.3%, 4 days) [%] | response vs control in vivo at 0.4 % [3, 6] [%] | response vs control in vivo at 0.3 % [1, 7] [%] | response vs control in vivo at 0.3 % [1, 8] [%] | response vs control in vivo at 0.3 % ([2]; Rattus norvegicus) [%] | ALP (alkaline phosphatase), percent of control ([1]; rat serum, diet 0.1%, 4 days) [%] | ALT (alanine aminotransferase), percent of control ([1]; rat serum, diet 0.1%, 4 days) [%] | AST (aspartate aminotransferase), percent of control ([1]; rat serum, diet 0.1%, 4 days) [%] | GLUC (glucose), percent of control ([1]; rat serum, diet 0.1%, 4 days) [%] | also measured
1 | CC(C)(C)c1cc(OC[Si](C)(c2ccccc2)c2ccccc2)cc(C(C)(C)C)c1O [MDL 104,599, 2,6-Di-t-butyl-4-[(diphenylmethylsilyl)methloxy]phenol] | 94 | 100 | 110 | 91 | 76 | 111 | 34 | 79 | – | – | – | – | – | – | – | –
2 | CC(C)(C)c1cc(OC[Si](C)(C)c2ccccc2)c(C(C)(C)C)cc1O [MDL 104,962, 2,5-Di-t-butyl-4-[(dimethylphenylsilyl)methyloxy]phenol] | 99 | 74 | 130 | 112 | 109 | 91 | 25 | 19 | – | – | – | – | – | – | – | –
3 | Cc1cc(OC[Si](C)(C)c2ccccc2)c(C)c(C)c1O [MDL 105,314, 2,3,6-Trimethyl-4-[(dimethylphenylsdilyl)methloxy]phenol] | – | – | 154 | 113 | 76 | 115 | – | – | 110 | 78 | 85 | – | – | – | – | –
4 | CC(=O)Oc1ccc(OC[Si](C)(C)c2ccccc2)cc1C(C)(C)C [MDL 105,443, 2-t-Butyl-4-[(dimethylphenylsilyl)methyloxy]phenol acetic acid ester] | 131 | 126 | 90 | 156 | 171 | 98 | 14 | 42 | – | – | – | 101 | 116 | 94 | 106 | response vs control in vivo at 0.1 % ([1]; rat serum, diet 0.1%, 4 days, read-out: CHOL (total cholesterol), percent of control): 111%; response vs control in vivo at 0.1 % ([1]; rat serum, diet 0.1%, 4 days, read-out: TRIG (triglycerides), percent of control): 111%; response vs control in vivo at 0.1 % ([2]; rat serum, diet 0.1%, 4 days): 78%
5 | CC(C)(C)c1cc(OC[Si](C)(C)c2ccc(C(F)(F)F)cc2)cc(C(C)(C)C)c1O [MDL 105,975, 2,6-Di-t-butyl-4-[(dimethyl-4-trifluoromethylphenylsilyl)methyloxy]phenol] | – | – | 105 | 106 | 122 | 106 | – | – | 122 | 107 | 24 | 112 | 96 | 89 | 110 | response vs control in vivo at 0.1 % [1, 7]: 98%; response vs control in vivo at 0.1 % [1, 8]: 108%; response vs control in vivo at 0.1 % ([2]; Rattus norvegicus): 67%; response vs control in vivo at 0.4 % [3]: 68%
6 | COc1ccc([Si](C)(C)COc2ccc(O)c(C(C)(C)C)c2)cc1 [MDL 106,834, 2-t-Butyl-4-[(dimethyl-p-methoxylphenylsilyl)methyloxy]phenol] | 150 | 83 | 69 | 141 | 122 | 95 | 31 | 70 | – | – | – | – | – | – | – | –
